ChEMBL document CHEMBL4138123, “Design, synthesis and biological evaluation of novel pyrazolochalcones as potential modulators of PI3K/Akt/mTOR pathway and inducers of apoptosis in breast cancer cells” (Eur J Med Chem, 2017)

Legend:
Assay type in all cases: functional
786-0 = assay: Cytotoxicity against human 786-0 cells assessed as growth inhibition after 48 hrs by sulforhodamine B assay; conditions: 786-0, 48 h
MCF7 [1] = assay: Cytotoxicity against human MCF7 cells assessed as cell growth at 0.1 uM after 48 hrs by sulforhodamine B assay relative to control; conditions: MCF7, 48 h, read-out: Activity
A498 = assay: Cytotoxicity against human A498 cells assessed as cell growth at 0.1 uM after 48 hrs by sulforhodamine B assay relative to control; conditions: A498, 48 h, read-out: Activity
UACC-257 = assay: Cytotoxicity against human UACC257 cells assessed as cell growth at 100 uM after 48 hrs by sulforhodamine B assay relative to control; conditions: UACC-257, 48 h, read-out: Activity
U-251 = assay: Cytotoxicity against human U251 cells assessed as cell growth at 10 uM after 48 hrs by sulforhodamine B assay relative to control; conditions: U-251, 48 h, read-out: Activity
UO-31 [2] = assay: Cytotoxicity against human UO31 cells assessed as cell growth at 0.01 uM after 48 hrs by sulforhodamine B assay relative to control; conditions: UO-31, 48 h, read-out: Activity
HT-29 [3] = assay: Cytotoxicity against human HT-29 cells assessed as cell growth at 0.1 uM after 48 hrs by sulforhodamine B assay relative to control; conditions: HT-29, 48 h, read-out: Activity
SR = assay: Cytotoxicity against human SR cells assessed as cell growth at 100 uM after 48 hrs by sulforhodamine B assay relative to control; conditions: read-out: Activity
SF-539 = assay: Cytotoxicity against human SF539 cells assessed as cell growth at 100 uM after 48 hrs by sulforhodamine B assay relative to control; conditions: SF-539, 48 h, read-out: Activity
MDA-MB-231 = assay: Cytotoxicity against human MDA-MB-231 cells assessed as cell growth at 0.01 uM after 48 hrs by sulforhodamine B assay relative to control; conditions: MDA-MB-231, 48 h, read-out: Activity
HT-29 [4] = assay: Cytotoxicity against human HT-29 cells assessed as cell growth at 1 uM after 48 hrs by sulforhodamine B assay relative to control; conditions: HT-29, 48 h, read-out: Activity
NCI-H322M = assay: Cytotoxicity against human NCI-H322M cells assessed as growth inhibition after 48 hrs by sulforhodamine B assay; conditions: for CC50: read-out: LC50 (the source's name)
OVCAR-8 [5] = assay: Cytotoxicity against human OVCAR8 cells assessed as cell growth at 1 uM after 48 hrs by sulforhodamine B assay relative to control; conditions: OVCAR-8, 48 h, read-out: Activity
OVCAR-5 [6] = assay: Cytotoxicity against human OVCAR5 cells assessed as growth inhibition after 48 hrs by sulforhodamine B assay; conditions: OVCAR-5, 48 h
HT-29 [7] = assay: Cytotoxicity against human HT-29 cells assessed as cell growth at 10 uM after 48 hrs by sulforhodamine B assay relative to control; conditions: HT-29, 48 h, read-out: Activity
RXF 393 [8] = assay: Cytotoxicity against human RXF393 cells assessed as cell growth at 100 uM after 48 hrs by sulforhodamine B assay relative to control; conditions: RXF 393, 48 h, read-out: Activity
MCF7 [9] = assay: Cytotoxicity against human MCF7 cells assessed as cell growth at 1 uM after 48 hrs by sulforhodamine B assay relative to control; conditions: MCF7, 48 h, read-out: Activity
SNB-19 = assay: Cytotoxicity against human SNB19 cells assessed as cell growth at 100 uM after 48 hrs by sulforhodamine B assay relative to control; conditions: SNB-19, 48 h, read-out: Activity
HCT-116 [10] = assay: Cytotoxicity against human HCT116 cells assessed as cell growth at 1 uM after 48 hrs by sulforhodamine B assay relative to control; conditions: HCT-116, 48 h, read-out: Activity
OVCAR-4 = assay: Cytotoxicity against human OVCAR4 cells assessed as growth inhibition after 48 hrs by sulforhodamine B assay; conditions: OVCAR-4, 48 h
SK-MEL-28 = assay: Cytotoxicity against human SK-MEL-28 cells assessed as cell growth at 0.1 uM after 48 hrs by sulforhodamine B assay relative to control; conditions: SK-MEL-28, 48 h, read-out: Activity
OVCAR-3 = assay: Cytotoxicity against human OVCAR3 cells assessed as cell growth at 10 uM after 48 hrs by sulforhodamine B assay relative to control; conditions: OVCAR-3, 48 h, read-out: Activity
RXF 393 [11] = assay: Cytotoxicity against human RXF393 cells assessed as cell growth at 0.1 uM after 48 hrs by sulforhodamine B assay relative to control; conditions: RXF 393, 48 h, read-out: Activity
OVCAR-8 [12] = assay: Cytotoxicity against human OVCAR8 cells assessed as growth inhibition after 48 hrs by sulforhodamine B assay; conditions: OVCAR-8, 48 h
UO-31 [13] = assay: Cytotoxicity against human UO31 cells assessed as cell growth at 1 uM after 48 hrs by sulforhodamine B assay relative to control; conditions: UO-31, 48 h, read-out: Activity
Malme-3M = assay: Cytotoxicity against human MALME-3M cells assessed as growth inhibition after 48 hrs by sulforhodamine B assay
HCT-116 [14] = assay: Cytotoxicity against human HCT116 cells assessed as growth inhibition after 48 hrs by sulforhodamine B assay; conditions: HCT-116, 48 h
SW-620 = assay: Cytotoxicity against human SW620 cells assessed as cell growth at 0.01 uM after 48 hrs by sulforhodamine B assay relative to control; conditions: SW-620, 48 h, read-out: Activity
OVCAR-5 [15] = assay: Cytotoxicity against human OVCAR5 cells assessed as cell growth at 0.01 uM after 48 hrs by sulforhodamine B assay relative to control; conditions: OVCAR-5, 48 h, read-out: Activity
SF-268 [16] = assay: Cytotoxicity against human SF268 cells assessed as cell growth at 0.1 uM after 48 hrs by sulforhodamine B assay relative to control; conditions: SF-268, 48 h, read-out: Activity
COLO 205 [17] = assay: Cytotoxicity against human COLO205 cells assessed as cell growth at 1 uM after 48 hrs by sulforhodamine B assay relative to control; conditions: COLO 205, 48 h, read-out: Activity
OVCAR-8 [18] = assay: Cytotoxicity against human OVCAR8 cells assessed as cell growth at 0.01 uM after 48 hrs by sulforhodamine B assay relative to control; conditions: OVCAR-8, 48 h, read-out: Activity
K562 = assay: Cytotoxicity against human K562 cells assessed as cell growth at 0.01 uM after 48 hrs by sulforhodamine B assay relative to control; conditions: K562, 48 h, read-out: Activity
SF-268 [19] = assay: Cytotoxicity against human SF268 cells assessed as cell growth at 0.01 uM after 48 hrs by sulforhodamine B assay relative to control; conditions: SF-268, 48 h, read-out: Activity
COLO 205 [20] = assay: Cytotoxicity against human COLO205 cells assessed as cell growth at 100 uM after 48 hrs by sulforhodamine B assay relative to control; conditions: COLO 205, 48 h, read-out: Activity
SK-OV-3 = assay: Cytotoxicity against human SKOV3 cells assessed as cell growth at 100 uM after 48 hrs by sulforhodamine B assay relative to control; conditions: SK-OV-3, 48 h, read-out: Activity

## COc1ccc(C(=O)/C=C/c2cc(-c3ccc(OC)c(OC)c3)n[nH]2)cc1OC
786-0
  GI50: 1.81 µM
  TGI: 5.14 µM
MCF7 [1]
  growth at 0.1 µM: 94%
A498
  growth at 0.1 µM: 81%
UACC-257
  growth at 100 µM: -70%
U-251
  growth at 10 µM: -85%
UO-31 [2]
  growth at 0.01 µM: 89%
HT-29 [3]
  growth at 0.1 µM: 96%
SR
  growth at 100 µM: -17%
SF-539
  growth at 100 µM: -83%
MDA-MB-231
  growth at 0.01 µM: 108%
HT-29 [4]
  growth at 1 µM: 63%
NCI-H322M
  GI50: 2.67 µM
  TGI: 8.23 µM
  CC50: > 100 µM
OVCAR-8 [5]
  growth at 1 µM: 80%
OVCAR-5 [6]
  GI50: 1.76 µM
  TGI: 5.24 µM
HT-29 [7]
  growth at 10 µM: -28%
RXF 393 [8]
  growth at 100 µM: -90%
MCF7 [9]
  growth at 1 µM: 49%
SNB-19
  growth at 100 µM: -36%
HCT-116 [10]
  growth at 1 µM: 21%
OVCAR-4
  GI50: 1.92 µM
  TGI: 8.15 µM
SK-MEL-28
  growth at 0.1 µM: 95%
OVCAR-3
  growth at 10 µM: -43%
RXF 393 [11]
  growth at 0.1 µM: 84%
OVCAR-8 [12]
  GI50: 2.63 µM
  TGI: 22.5 µM
UO-31 [13]
  growth at 1 µM: 72%
Malme-3M
  GI50: 2.59 µM
  TGI: 6.21 µM
HCT-116 [14]
  GI50: 0.369 µM
  TGI: 1.71 µM
SW-620
  growth at 0.01 µM: 96%
OVCAR-5 [15]
  growth at 0.01 µM: 88%
SF-268 [16]
  growth at 0.1 µM: 95%
COLO 205 [17]
  growth at 1 µM: 82%
OVCAR-8 [18]
  growth at 0.01 µM: 99%
K562
  growth at 0.01 µM: 101%
SF-268 [19]
  growth at 0.01 µM: 96%
COLO 205 [20]
  growth at 100 µM: -70%
SK-OV-3
  growth at 100 µM: -8%

## COc1ccc(-c2cc(/C=C/C(=O)c3ccc(N)cc3)[nH]n2)cc1
786-0
  GI50: 2.12 µM
  LC50: 58.1 µM
  TGI: 5.69 µM
MCF7 [1]
  growth at 0.1 µM: 94%
A498
  growth at 0.1 µM: 97%
UACC-257
  growth at 100 µM: -95%
U-251
  growth at 10 µM: -94%
UO-31 [2]
  growth at 0.01 µM: 90%
HT-29 [3]
  growth at 0.1 µM: 95%
SR
  growth at 100 µM: -61%
SF-539
  growth at 100 µM: -94%
MDA-MB-231
  growth at 0.01 µM: 93%
HT-29 [4]
  growth at 1 µM: 97%
NCI-H322M
  GI50: 1.84 µM
  TGI: 9.27 µM
  CC50: 31.6 µM
OVCAR-8 [5]
  growth at 1 µM: 76%
OVCAR-5 [6]
  GI50: 2.06 µM
  LC50: 16 µM
  TGI: 4.92 µM
HT-29 [7]
  growth at 10 µM: -10%
RXF 393 [8]
  growth at 100 µM: -63%
MCF7 [9]
  growth at 1 µM: 42%
SNB-19
  growth at 100 µM: -80%
HCT-116 [10]
  growth at 1 µM: 67%
OVCAR-4
  GI50: 1.08 µM
  LC50: 51.2 µM
  TGI: 8.01 µM
SK-MEL-28
  growth at 0.1 µM: 91%
OVCAR-3
  growth at 10 µM: -70%
RXF 393 [11]
  growth at 0.1 µM: 88%
OVCAR-8 [12]
  GI50: 2.44 µM
  LC50: > 100 µM
  TGI: 15.4 µM
UO-31 [13]
  growth at 1 µM: 61%
Malme-3M
  GI50: 2.18 µM
  LC50: 28.8 µM
  TGI: 6.22 µM
HCT-116 [14]
  GI50: 1.38 µM
  TGI: 3.61 µM
SW-620
  growth at 0.01 µM: 100%
OVCAR-5 [15]
  growth at 0.01 µM: 99%
SF-268 [16]
  growth at 0.1 µM: 93%
COLO 205 [17]
  growth at 1 µM: 100%
OVCAR-8 [18]
  growth at 0.01 µM: 96%
K562
  growth at 0.01 µM: 98%
SF-268 [19]
  growth at 0.01 µM: 95%
COLO 205 [20]
  growth at 100 µM: -74%
SK-OV-3
  growth at 100 µM: -68%

## COc1cc(-c2cc(/C=C/C(=O)c3ccc4c(c3)OCO4)[nH]n2)cc(OC)c1OC
786-0
  LC50: > 100 µM
  TGI: 5.82 µM
MCF7 [1]
  growth at 0.1 µM: 94%
A498
  growth at 0.1 µM: 79%
UACC-257
  growth at 100 µM: -1%
U-251
  growth at 10 µM: -31%
UO-31 [2]
  growth at 0.01 µM: 86%
HT-29 [3]
  growth at 0.1 µM: 100%
SR
  growth at 100 µM: 2%
SF-539
  growth at 100 µM: -83%
MDA-MB-231
  growth at 0.01 µM: 101%
HT-29 [4]
  growth at 1 µM: 103%
NCI-H322M
  TGI: 19.1 µM
  CC50: > 100 µM
OVCAR-8 [5]
  growth at 1 µM: 91%
OVCAR-5 [6]
  LC50: > 100 µM
  TGI: 93.5 µM
HT-29 [7]
  growth at 10 µM: -54%
RXF 393 [8]
  growth at 100 µM: -89%
MCF7 [9]
  growth at 1 µM: 65%
SNB-19
  growth at 100 µM: 6%
HCT-116 [10]
  growth at 1 µM: 90%
OVCAR-4
  LC50: > 100 µM
  TGI: > 100 µM
SK-MEL-28
  growth at 0.1 µM: 106%
OVCAR-3
  growth at 10 µM: 4%
RXF 393 [11]
  growth at 0.1 µM: 89%
OVCAR-8 [12]
  LC50: > 100 µM
  TGI: 11.1 µM
UO-31 [13]
  growth at 1 µM: 81%
Malme-3M
  LC50: 84.5 µM
  TGI: 20.8 µM
SW-620
  growth at 0.01 µM: 99%
OVCAR-5 [15]
  growth at 0.01 µM: 97%
SF-268 [16]
  growth at 0.1 µM: 90%
COLO 205 [17]
  growth at 1 µM: 93%
OVCAR-8 [18]
  growth at 0.01 µM: 99%
K562
  growth at 0.01 µM: 100%
SF-268 [19]
  growth at 0.01 µM: 91%
COLO 205 [20]
  growth at 100 µM: -100%
SK-OV-3
  growth at 100 µM: -47%
